The text below walks through data of patent US6177592A, “Compounds” (priority 1997, dated 2001).

The structures appear in SMILES notation.

The assay relates to NIH 3T3/Y-1. Briefly: Colony formation of control-vector NIH 3T3/Y-1 cells. Type of assay: cell-based. The following applies: 5 μM GM, nine days; control 83.3 ± 8.4. As for the experimental part: (1) Transformation to Escherichia coli HB101 was conducted by control plasmid pcD2-Y expressing G418-resisting gene [Mol. Cell. Biol., volume 7, pages 2745-2752 (1987)] and plasmid pcD2-16E7 which was capable of expressing both HPV 16 type E7 and G418-resisting gene [Jpn. J. Cancer Res., volume 82, pages 1340-1343 (1991)], then incubation was conducted in an L-broth medium and plasmid was extracted from the collected cells and purified by a cesium chloride density gradient ultracentrifugation to give vector plasmid for introduction of gene.
The purified plasmid (10 μg) was introduced into NIH 3T3 cells using a cationic liposome (TransIT LT-1, manufactured by Takara Shuzo), the cells were selected at 37° C. under the condition of 5% CO2 for two weeks in a Dulbecco-modified Eagle's medium containing 10% calf serum which contained 0.4 mg/ml of G418 (Gibco) and the resulting colonies were cloned to establish each nine strains of NIH 3T3 cells into which control vector was introdcd and NIH 3T3 cells which was cancerated with HPV 16 type E7.
The cell strains into which control vector was introduced were named NIH 3T3/Y-1, NIH 3T3/Y-2, NIH 3T3/Y-3, NIH 3T3/Y-4, NIH 3T3/Y-5, NIH 3T3/Y-6, NIH 3T3/Y-7, NIH 3T3/Y-8 and […]). […]
A part of the suspension was taken out and cell density was counted by a Neubauer's hemocytometer. […]

As for `N[C@@H](CCC(=O)N[C@@H](CSC1C=C(O)C(=O)C1)C(=O)NCC(=O)O)C(=O)O` (stereo partly shown) [GM, 2-hydroxy-4-glutathion-S-yl-2-cyclopenten-1-one], the “Numbers of Colonies (Mean Value ± SD)” value is listed as 72.0 ± 9.5.
